# According to US12281102B2, “Inhibitors of APOL1 and methods of using same” (Vertex Pharmaceuticals Incorporated, priority 2020, dated 2025):
# Molecular target: T1, G1 APOL1 (Homo sapiens, UniProt O14791, I384M/S342G)
# T1 construct: expressed in transfected cells
# T1 sequence (O14791 28-398 S342G/I384M): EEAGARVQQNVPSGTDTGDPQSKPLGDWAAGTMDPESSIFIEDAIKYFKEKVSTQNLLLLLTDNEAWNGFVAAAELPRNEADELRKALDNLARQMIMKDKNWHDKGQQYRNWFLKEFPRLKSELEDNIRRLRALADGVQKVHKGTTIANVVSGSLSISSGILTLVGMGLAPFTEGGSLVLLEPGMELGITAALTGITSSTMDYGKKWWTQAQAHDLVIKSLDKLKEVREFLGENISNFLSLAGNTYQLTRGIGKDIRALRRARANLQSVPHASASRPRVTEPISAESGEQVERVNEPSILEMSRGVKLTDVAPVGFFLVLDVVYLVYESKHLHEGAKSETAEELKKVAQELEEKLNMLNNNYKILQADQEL
# Assay: Acute APOL1 Thallium Assay with inducible stable clones of HEK 293 cells
# Format: cell-based
# Conditions: HEK 293 T-Rex inducible stable clone expressing G1 APOL1; read-out: Thallium Assay (IC50)
# How it was run: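 APOL1 pore function was measured as thallium influx, detected by a Tl+-sensitive fluorescent dye loaded as AM ester, on a FLIPR Tetra after Tl+ addition. Cells were HEK T-Rex G1 APOL1 clone DC3.25, 26,000 per well, induced with tetracycline at plating in Opti-MEM assay medium.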
row,SMILES,IC50
1,O=S(=O)(NC[C@H]1C[C@H](c2c(-c3ccc(F)cc3)[nH]c3c(F)cc(F)cc32)C1)NC(CO)CF (stereo partly drawn) [Compound 346],250 to 1000 nM
2,CN(C)CC(=O)NC[C@H]1C[C@@H](c2c(-c3ccc(F)cc3)[nH]c3c(F)cc(F)cc32)C1 [Compound 320],> 1000 nM
3,CC(C)(C)OC(=O)N[C@@H](CO)C(=O)NC[C@H]1C[C@H](c2c(-c3ccc(F)cc3)[nH]c3c(F)cc(F)cc32)C1 [Compound 193],< 250 nM
4,Fc1ccc(-c2[nH]c3c(F)cc(F)cc3c2C2CC(CN[C@H]3CCOC3)C2)cc1 (stereo partly drawn) [Compound 398],> 1000 nM
5,O=C(CN1CCOCC1)N[C@H]1C[C@H](c2c(-c3ccc(F)cc3)[nH]c3c(F)cc(F)cc32)C1 [Compound 121],> 1000 nM
6,CN(C)CCC(=O)N[C@H]1C[C@H](c2c(-c3ccc(F)cc3)[nH]c3c(F)cc(F)cc32)C1 [Compound 122],> 1000 nM
7,O=C(CC(=O)N1CCOCC1)NC[C@H]1C[C@@H](c2c(-c3ccc(F)cc3)[nH]c3c(F)cc(F)cc32)C1 [Compound 300],> 1000 nM
8,Cn1nccc1CC(=O)N[C@H]1C[C@H](c2c(-c3ccc(F)cc3)[nH]c3c(F)cc(F)cc32)C1 [Compound 115],> 1000 nM
9,O=C(CC1CC(F)(F)C1)NC[C@H]1C[C@@H](c2c(-c3ccc(F)cc3)[nH]c3c(F)cc(F)cc32)C1 [Compound 313],> 1000 nM
10,CNC1(C(=O)N[C@H]2C[C@H](c3c(-c4ccc(F)cc4)[nH]c4c(F)cc(F)cc43)C2)CC1 [Compound 141],250 to 1000 nM
11,"NCC1(F)CC(c2c(-c3ccc(F)cc3)[nH]c3c(F)cc(F)cc23)C1 (stereo not drawn) [Compound 428, [3-[5,7-difluoro-2-(4-fluorophenyl)-1H-indol-3-yl]-1-fluoro-cyclobutyl]methanamine]",250 to 1000 nM
12,CNCCC(=O)N[C@H]1C[C@H](c2c(-c3ccc(F)cc3)[nH]c3c(F)cc(F)cc32)C1 [Compound 134],250 to 1000 nM
13,O=S(=O)(NCCc1cn[nH]c1)NC[C@H]1C[C@H](c2c(-c3ccc(F)cc3)[nH]c3c(F)cc(F)cc32)C1 [Compound 369],250 to 1000 nM
14,Cn1nccc1CC(=O)NC[C@H]1C[C@@H](c2c(-c3ccc(F)cc3)[nH]c3c(F)cc(F)cc32)C1 [Compound 322],> 1000 nM
15,CC(C)(O)C(=O)N[C@H]1C[C@H](c2c(-c3ccc(F)cc3)[nH]c3c(F)cc(F)cc32)C1 [Compound 133],< 250 nM
16,O=C(NC[C@H]1C[C@H](c2c(-c3ccc(F)cc3)[nH]c3c(F)cc(F)cc32)C1)[C@@H]1C[C@@H](F)CN1 [Compound 205],< 250 nM
17,CC(C)S(=O)(=O)N[C@H]1C[C@H](c2c(-c3ccc(F)cc3)[nH]c3c(F)cc(F)cc32)C1 [Compound 149],250 to 1000 nM
18,O=C(NC[C@H]1C[C@H](c2c(-c3ccc(F)cc3)[nH]c3c(F)cc(F)cc32)C1)c1n[nH]c(=O)[nH]1 [Compound 290],> 1000 nM
19,"O=C(N[C@H]1C[C@@H](c2c(-c3ccc(F)cc3)[nH]c3c(F)cc(F)cc32)C1)OCc1ccccc1 [Compound 27, benzyl((1s,3s)-3-(5,7-difluoro-2-(4-fluorophenyl)-1H-indol-3-yl)cyclobutyl)carbamate]",> 1000 nM
20,O=C(N[C@H]1C[C@H](c2c(-c3ccc(F)cc3)[nH]c3c(F)cc(F)cc32)C1)C(F)F [Compound 144],< 250 nM
21,O=C(CN1CCOCC1)N[C@H]1C[C@@H](c2c(-c3ccc(F)cc3)[nH]c3c(F)cc(F)cc32)C1 [Compound 57],> 1000 nM
22,O=C(CO)NC[C@H]1C[C@H](c2c(-c3ccc(F)cc3)[nH]c3c(F)cc(F)cc32)C1 [Compound 203],< 250 nM
23,COCCC(=O)N[C@H]1C[C@H](c2c(-c3ccc(F)cc3)[nH]c3c(F)cc(F)cc32)C1 [Compound 125],< 250 nM
24,NCCNCC1CC(c2c(-c3ccc(F)cc3)[nH]c3c(F)cc(F)cc23)C1 (stereo not drawn) [Compound 388],250 to 1000 nM
25,O=C(CO)NC[C@H]1C[C@@H](c2c(-c3ccc(F)cc3)[nH]c3c(F)cc(F)cc32)C1 [Compound 210],250 to 1000 nM
26,O=C(CC1CC(F)(F)C1)N[C@H]1C[C@@H](c2c(-c3ccc(F)cc3)[nH]c3c(F)cc(F)cc32)C1 [Compound 31],> 1000 nM
27,NCC(=O)NC[C@H]1C[C@H](c2c(-c3ccc(F)cc3)[nH]c3c(F)cc(F)cc32)C1 [Compound 191],< 250 nM

row,SMILES,IC50
1,C[C@H](O)C(=O)NC[C@H]1C[C@H](c2c(-c3ccc(F)cc3)[nH]c3c(F)cc(F)cc32)C1 [Compound 207],250 to 1000 nM
2,O=C(CC1CCOCC1)NC[C@H]1C[C@@H](c2c(-c3ccc(F)cc3)[nH]c3c(F)cc(F)cc32)C1 [Compound 325],> 1000 nM
3,"CC(NC(=O)O[C@H]1C[C@H](c2c(-c3ccc(F)cc3)[nH]c3c(F)cc(F)cc32)C1)C(N)=O (mixture of isomers) [Compound 456, [3-[5,7-difluoro-2-(4-fluorophenyl)-1H-indol-3-yl]cyclobutyl]N-(2-amino-1-methyl-2-oxo-ethyl)carbamate]",> 1000 nM
4,CNCCC(=O)N[C@H]1C[C@@H](c2c(-c3ccc(F)cc3)[nH]c3c(F)cc(F)cc32)C1 [Compound 75],250 to 1000 nM
5,CC(C)(C)OC(=O)NCC(=O)NC[C@H]1C[C@H](c2c(-c3ccc(F)cc3)[nH]c3c(F)cc(F)cc32)C1 [Compound 215],250 to 1000 nM
6,O=C(CN1CCCC1)N[C@H]1C[C@@H](c2c(-c3ccc(F)cc3)[nH]c3c(F)cc(F)cc32)C1 [Compound 46],> 1000 nM
7,OC1CC(NCC2CC(c3c(-c4ccc(F)cc4)[nH]c4c(F)cc(F)cc34)C2)C1 (stereo not drawn) [Compound 377],250 to 1000 nM
8,"O=C(C1CC1)N1CCC(Cc2c(-c3ccc(F)cc3)[nH]c3c(F)cc(F)cc23)C1 (stereo not drawn) [Compound 445, Cyclopropyl-[3-[[5,7-difluoro-2-(4-fluorophenyl)-1H-indol-3-yl]methyl]pyrrolidin-1-yl]methanone]",> 1000 nM
9,CC(NS(C)(=O)=O)C(=O)NC[C@H]1C[C@@H](c2c(-c3ccc(F)cc3)[nH]c3c(F)cc(F)cc32)C1 (mixture of isomers) [Compound 242],> 1000 nM
10,O=C(NC[C@H]1C[C@@H](c2c(-c3ccc(F)cc3)[nH]c3c(F)cc(F)cc32)C1)c1nc[nH]n1 [Compound 302],> 1000 nM
11,"NC(=O)CC(=O)NC[C@H]1C[C@H](c2c(-c3ccc(F)cc3)[nH]c3c(F)cc(F)cc32)C1 [Compound 450, N^1-(((1r,3r)-3-(5,7-difluoro-2-(4-fluorophenyl)-1H-indol-3-yl)cyclobutyl)methyl)malonamide]",250 to 1000 nM
12,O=C(CC1COC1)NC[C@H]1C[C@@H](c2c(-c3ccc(F)cc3)[nH]c3c(F)cc(F)cc32)C1 [Compound 319],> 1000 nM
13,O=C1NCC(C(=O)NC[C@H]2C[C@H](c3c(-c4ccc(F)cc4)[nH]c4c(F)cc(F)cc43)C2)O1 (stereo partly drawn) [Compound 269],> 1000 nM
14,O=C1NCC[C@@H]1NCC1CC(c2c(-c3ccc(F)cc3)[nH]c3c(F)cc(F)cc23)C1 (stereo partly drawn) [Compound 400],> 1000 nM
15,O=S(=O)(NC[C@H]1C[C@H](c2c(-c3ccc(F)cc3)[nH]c3c(F)cc(F)cc32)C1)N[C@@H]1CCC[C@H]1O [Compound 348],> 1000 nM
16,"Fc1ccc(-c2[nH]c3c(F)cc(F)cc3c2[C@H]2C[C@H](CNc3nnc(C(F)(F)F)s3)C2)cc1 [Compound 423, N-(((1r,3r)-3-(5,7-difluoro-2-(4-fluorophenyl)-1H-indol-3-yl)cyclobutyl)methyl)-5-(trifluoromethyl)-1,3,4-thiadiazol-2-amine]",> 1000 nM
17,CCC(C)S(=O)(=O)N[C@H]1C[C@H](c2c(-c3ccc(F)cc3)[nH]c3c(F)cc(F)cc32)C1 (stereo partly drawn) [Compound 152],> 1000 nM
18,CC[C@H](NC(=O)OC(C)(C)C)C(=O)NC[C@H]1C[C@H](c2c(-c3ccc(F)cc3)[nH]c3c(F)cc(F)cc32)C1 [Compound 258],> 1000 nM
19,CC(C)C(O)C(=O)N[C@H]1C[C@H](c2c(-c3ccc(F)cc3)[nH]c3c(F)cc(F)cc32)C1 (stereo partly drawn) [Compound 93],250 to 1000 nM
20,O=C(CC1CC(=O)NC(=O)C1)NC[C@H]1C[C@@H](c2c(-c3ccc(F)cc3)[nH]c3c(F)cc(F)cc32)C1 [Compound 285],> 1000 nM
21,O=S(=O)(NCCN1CCC(O)C1)NC[C@H]1C[C@H](c2c(-c3ccc(F)cc3)[nH]c3c(F)cc(F)cc32)C1 (stereo partly drawn) [Compound 333],> 1000 nM
22,"CC(C)(O)C(=O)NC1CC(c2c(-c3ccc(F)cc3)[nH]c3c(F)cc(C(F)(F)F)cc23)C1 (mixture of isomers) [Compound 3, N-[3-[7-fluoro-2-(4-fluorophenyl)-5-(trifluoromethyl)-1H-indol-3-yl]cyclobutyl]-2-hydroxy-2-methyl-propanamide]",250 to 1000 nM
23,O=c1ccc2cc(S(=O)(=O)N[C@H]3C[C@H](c4c(-c5ccc(F)cc5)[nH]c5c(F)cc(F)cc54)C3)ccc2[nH]1 [Compound 155],> 1000 nM
24,NC(=O)CNS(=O)(=O)NC[C@H]1C[C@H](c2c(-c3ccc(F)cc3)[nH]c3c(F)cc(F)cc32)C1 [Compound 341],250 to 1000 nM
25,O=C(NC[C@H]1C[C@H](c2c(-c3ccc(F)cc3)[nH]c3c(F)cc(F)cc32)C1)C1(O)COC1 [Compound 221],250 to 1000 nM
26,CC(CCO)NS(=O)(=O)NC[C@H]1C[C@H](c2c(-c3ccc(F)cc3)[nH]c3c(F)cc(F)cc32)C1 (mixture of isomers) [Compound 362],250 to 1000 nM

# Same assay, conditions: Thallium Assay (IC50), HEK 293 T-Rex inducible stable clone expressing G1 APOL1
row,SMILES,IC50
1,CC(C)(C)OC(=O)N1CC[C@@H]1C(=O)NC[C@H]1C[C@H](c2c(-c3ccc(F)cc3)[nH]c3c(F)cc(F)cc32)C1 [Compound 310],> 1000 nM
